SMILES strings stand for the structures.

For this data set the following is noted: in water.

The solubility (mole fraction) is the moles of solute divided by all moles in the saturated solution. As to `O=C(O)CC(O)C(=O)O` (stereo unspecified), the solubility (mole fraction) by setting is: (278.15 K) 0.112; (283.15 K) 0.121; (288.15 K) 0.132; (293.15 K) 0.145; (298.15 K) 0.158; (303.15 K) 0.168. Besides, the solubility (mole fraction) (308.15 K) worked out at 0.181; the solubility (mole fraction) (313.15 K) was found to be 0.198; the solubility (mole fraction) (318.65 K) turned out to be 0.209; the solubility (mole fraction) (323.15 K) turned out to be 0.231; the solubility (mole fraction) (328.15 K) turned out to be 0.248; the solubility (mole fraction) (333.15 K) turned out to be 0.269. Under “338.15 K”, this compound came in with a solubility (mole fraction) of 0.294.
In the case of `O=C(O)/C=C\C(=O)O`, the solubility (mole fraction) is, setting by setting: (278.15 K) 0.0673; (283.15 K) 0.0779; (288.15 K) 0.0869; (293.15 K) 0.0969; (298.15 K) 0.111; (303.15 K) 0.124. For the same compound, the solubility (mole fraction) by setting is: (308.15 K) 0.142; (313.15 K) 0.154; (318.65 K) 0.174; (323.15 K) 0.184; (328.15 K) 0.199; (333.15 K) 0.218. This compound gave a solubility (mole fraction) (338.15 K) of 0.232.

For the origin of these results see BigSolDB 2.1.
